Laboratory results from patent publication US20240216395A1, “19-NOR C3,3-DISUBSTITUTED C21 -N-PYRAZOLYL STEROID FOR USE IN TREATING MAJOR DEPRESSIVE DISORDER AND […]” (priority 2021, published 2024).

Legend:
[1] = aqueous solution formulation (Hoffmann 2020); cited from earlier work
[2] = system: adult female subjects with severe postpartum depression (PPD); assay: Phase 3 PPD study (NCT02978326): safety, TEAEs and NNH; assay type: in vivo, human
Protocol: Safety Endpoints: Safety and tolerability of study drug was evaluated by frequency of adverse events; severity, relatedness, and seriousness of adverse events; clinical laboratory measures, vital signs, ECGs; and concomitant medication usage. Suicidality was monitored using the C-SSRS.
Adverse events were coded using Medical Dictionary for Regulatory Activities (MedDRA™) Version 19.1 or higher. […] The incidence of adverse events was also presented by maximum severity and relationship to study drug. Vital signs, clinical laboratory measures, ECG, concomitant medication usage, and C-SSRS data was summarized by treatment, where applicable. Out-of-range safety endpoints could be categorized as low or high, where applicable. Safety data was summarized and examined for possible relationships between subject characteristics and plasma Compound (1) concentrations, as appropriate. Suicidality data collected using the C-SSRS at baseline and at each visit during the active Treatment Period was listed for all subjects. The C-SSRS listings included behavior type and/or category for suicidal ideation and suicidal behavior of the C-SSRS.
Sustained Response or Remission was defined as continued categorization of a Responder/Remitter at both days 15 and 45. Tolerability and safety outcomes included number needed to harm (NNH) for discontinuation due to an AE, as well as individual safety events of interest. NNH was calculated for (1) AEs with incidence ≥2% with Compound (1) and higher rate than placebo, and (2) the proportion of patients in each treatment arm discontinuing the study drug due to an AE. 95% confidence intervals (CIs) were calculated based upon Wilson score intervals.

[3] = system: nondependent, recreational users of CNS depressants; assay: Abuse potential main study, treatment phase: TEAEs; assay type: in vivo, human
Protocol: The main study consisted of 4 phases (FIG. 30B). The screening phase was a 1-day visit occurring within 21 days of the beginning of the qualification phase. The qualification phase was a 4-day, inpatient period to ensure participants could discriminate between alprazolam (active comparator) and placebo, and that they could tolerate the alprazolam 2-mg doses. Participants received single-oral doses of alprazolam 2 mg and placebo in a crossover manner 24 hours apart, and if they could discriminate between the two medications, they continued to the treatment phase. The treatment phase was a double-blind, active- and placebo-controlled, 6-way crossover design where participants were randomized equally to a single oral dose of 1 of 6 treatments: placebo, alprazolam (1.5 and 3 mg), and Compound (1) (30, 60, and 90 mg). The Compound (1) doses were based on the results from the first part, dose selection, and treatments were separated by 7 days. The follow-up phase was a 1-day visit occurring 7 (2) days after the treatment phase.
Safety and tolerability endpoints included the frequency and severity of AEs and SAEs, the change from baseline in clinical laboratory assessments, vital signs, and ECG, and suicidality assessed by the Columbia-Suicide Severity Rating Scale (C-SSRS).
The dose selection safety set included all participants who received 1 dose of Compound (1). The main study qualification safety set included all participants who received ≥1 dose of alprazolam. For the treatment phase, the randomized set included all participants who were randomized and the safety set included all participants who received ≥1 dose of Compound (1) or alprazolam. The completer set included all participants in the randomized set who completed all treatment periods, had sufficient data for evaluation of the primary endpoint, and had ≥1 observation within 2 hours of Tmax for each treatment for Drug Liking VAS scores. […] The PK set included all participants in the treatment phase who received 1 dose of Compound (1) and had 1 PK sample after dosing.

[4] = treatment phase, Compound (1) 30 mg (n = 65)
[5] = treatment phase, Compound (1) 60 mg (n = 66)
[6] = treatment phase, Compound (1) 90 mg (n = 67)

C[C@@]1(O)CC[C@H]2[C@H](CC[C@@H]3[C@@H]2CC[C@]2(C)[C@@H](C(=O)Cn4cc(C#N)cn4)CC[C@@H]32)C1 [Compound (1), 1-(2-((3R,5R,8R,9R,10S,13S,14S,17S)-3-hydroxy-3,13-dimethylhexadecahydro-1H-cyclopenta[a]phenanthren-17-yl)-2-oxoethyl)-1H-pyrazole-4-carbonitrile]
T½ values reported by a prior study [1]: 14 to 19 h | Loss of consciousness or syncope ([2]; 30 mg): no reports of loss of consciousness or syncope | NNH vs placebo: AE leading to treatment discontinuation ([2]; 30 mg): 78 (ns) | NNH vs placebo: Diarrhoea ([2]; 30 mg): 28 (ns) | NNH vs placebo: Dizziness ([2]; 30 mg): 46 (ns) | NNH vs placebo: Dry mouth (Gastrointestinal disorders) ([2]; 30 mg): 26 (ns) | NNH vs placebo: Dry mouth (under Infections and infestations) ([2]; 30 mg): 41 (ns) | NNH vs placebo: Fatigue ([2]; 30 mg): 41 (ns) | NNH vs placebo: Pain in extremity ([2]; 30 mg): 84 (ns) | NNH vs placebo: Sedation ([2]; 30 mg): 20 (ns) | NNH vs placebo: Somnolence ([2]; 30 mg): 23 (ns) | NNH vs placebo: Upper respiratory tract infection ([2]; 30 mg): 16 (ns) | Overall tolerability ([2]; 30 mg): generally well tolerated | Diarrhoea ([2]; 30 mg (N = 78)): 5 (6.4%) n (%) | Dizziness ([2]; 30 mg (N = 78)): 6 (7.7%) n (%) | Dry mouth (Gastrointestinal disorders) ([2]; 30 mg (N = 78)): 3 (3.8%) n (%) | Dry mouth (listed under Infections and infestations) ([2]; 30 mg (N = 78)): 3 (3.8%) n (%) | Fatigue ([2]; 30 mg (N = 78)): 3 (3.8%) n (%) | Pain in extremity ([2]; 30 mg (N = 78)): 2 (2.6%) n (%) | Sedation ([2]; 30 mg (N = 78)): 4 (5.1%) n (%) | Somnolence ([2]; 30 mg (N = 78)): 12 (15.4%) n (%) | Subjects with an AE leading to treatment discontinuation ([2]; 30 mg (N = 78)): 1 (1.3%) n (%) | Upper respiratory tract infection ([2]; 30 mg (N = 78)): 6 (7.7%) n (%) | Patients with a TEAE whose TEAEs were mild and moderate in severity ([2]; clinical trial of Example 4): 94% | Severe TEAEs and deaths ([3]; 30, 60, 90 mg single doses): no reported severe TEAEs nor deaths | Back pain (TEAE) [3, 4]: 0 n | Confusional state (TEAE) [3, 4]: 0 n | Diarrhea (TEAE) [3, 4]: 0 n | Feeling drunk (TEAE) [3, 4]: 0 n | Fine motor skill dysfunction (TEAE) [3, 4]: 0 n | Hiccups (TEAE) [3, 4]: 0 n | Irritability (TEAE) [3, 4]: 0 n | Lacrimation increased (TEAE) [3, 4]: 0 n | Swelling face (TEAE) [3, 4]: 0 n | Tremor (TEAE) [3, 4]: 0 n | Upper respiratory tract infection (TEAE) [3, 4]: 0 n | Back pain (TEAE) [3, 5]: 0 n | Confusional state (TEAE) [3, 5]: 0 n | Fine motor skill dysfunction (TEAE) [3, 5]: 0 n | Hiccups (TEAE) [3, 5]: 0 n | Irritability (TEAE) [3, 5]: 0 n | Lacrimation increased (TEAE) [3, 5]: 0 n | Swelling face (TEAE) [3, 5]: 0 n | Upper respiratory tract infection (TEAE) [3, 5]: 0 n | Back pain (TEAE) [3, 6]: 0 n | Diarrhea (TEAE) [3, 6]: 0 n | Hiccups (TEAE) [3, 6]: 0 n | Lacrimation increased (TEAE) [3, 6]: 0 n | Upper respiratory tract infection (TEAE) [3, 6]: 0 n
